The target of test [1] is Neuronal acetylcholine receptor; alpha3/beta4 (Rattus norvegicus, UniProt P04757+P12392). As to the kind of experiment: Displacement of [3H]epibatadine from rat alpha3beta4 nAChR expressed in HEK293 cells by scintillation counting analysis. Type of test: cell-based. On the technique in general: In a radioligand displacement assay an active substance lowers the binding of a labelled ligand.

Test [2] has as its target Neuronal acetylcholine receptor; alpha4/beta2 (Rattus norvegicus, UniProt P09483+P12390). As to the kind of experiment: Displacement of [3H]epibatadine from rat alpha4beta2 nAChR expressed in HEK293 cells by scintillation counting analysis. Type of test: cell-based.
Test [3] addresses Neuronal acetylcholine receptor subunit alpha-7 (Rattus norvegicus, UniProt Q05941). The experiment in a line: Displacement of [3H]epibatadine from rat alpha7 nAChR expressed in HEK293 cells by scintillation counting analysis. Type of test: cell-based.
A short description of test [4]: Displacement of [3H]epibatadine from rat forebrain nAChR expressed in HEK293 cells by scintillation counting analysis. The test is classed as cell-based.
The next test is filed under the species Rattus norvegicus. The experiment in a line: Selectivity ratio of Ki for rat alpha3beta4 nAChR to Ki for rat alpha4beta2 nAChR.

Sequence of Neuronal acetylcholine receptor; alpha3/beta4 (P04757 whole entry): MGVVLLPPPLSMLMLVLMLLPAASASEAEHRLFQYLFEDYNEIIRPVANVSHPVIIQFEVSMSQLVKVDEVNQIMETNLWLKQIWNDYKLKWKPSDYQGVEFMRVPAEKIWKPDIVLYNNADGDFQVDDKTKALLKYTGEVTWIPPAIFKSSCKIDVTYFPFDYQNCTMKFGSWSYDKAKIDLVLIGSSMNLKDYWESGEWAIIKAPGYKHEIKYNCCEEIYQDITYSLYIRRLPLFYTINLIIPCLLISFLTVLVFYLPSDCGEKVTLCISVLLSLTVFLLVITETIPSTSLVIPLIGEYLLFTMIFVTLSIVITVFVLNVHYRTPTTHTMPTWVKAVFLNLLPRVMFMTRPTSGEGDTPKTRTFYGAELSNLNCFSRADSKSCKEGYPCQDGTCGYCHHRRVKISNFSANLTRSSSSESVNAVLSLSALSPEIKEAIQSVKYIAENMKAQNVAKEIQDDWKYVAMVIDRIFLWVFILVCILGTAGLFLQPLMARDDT
Sequence of Neuronal acetylcholine receptor; alpha3/beta4 (P12392 whole entry): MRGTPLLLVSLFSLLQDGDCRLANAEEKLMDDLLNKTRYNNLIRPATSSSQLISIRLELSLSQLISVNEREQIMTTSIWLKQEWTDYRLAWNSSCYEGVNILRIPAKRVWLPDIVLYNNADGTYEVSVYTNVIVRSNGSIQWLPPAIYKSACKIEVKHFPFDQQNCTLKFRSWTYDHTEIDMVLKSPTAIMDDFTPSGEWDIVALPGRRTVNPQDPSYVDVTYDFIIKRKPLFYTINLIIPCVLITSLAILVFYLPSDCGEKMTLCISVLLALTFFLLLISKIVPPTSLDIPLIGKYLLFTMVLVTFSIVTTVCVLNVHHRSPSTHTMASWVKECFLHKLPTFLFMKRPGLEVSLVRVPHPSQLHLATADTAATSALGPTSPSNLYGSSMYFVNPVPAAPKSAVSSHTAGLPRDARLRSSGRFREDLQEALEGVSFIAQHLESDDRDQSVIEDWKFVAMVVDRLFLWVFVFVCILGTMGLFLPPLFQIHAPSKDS
Sequence of Neuronal acetylcholine receptor; alpha4/beta2 (P09483 whole entry): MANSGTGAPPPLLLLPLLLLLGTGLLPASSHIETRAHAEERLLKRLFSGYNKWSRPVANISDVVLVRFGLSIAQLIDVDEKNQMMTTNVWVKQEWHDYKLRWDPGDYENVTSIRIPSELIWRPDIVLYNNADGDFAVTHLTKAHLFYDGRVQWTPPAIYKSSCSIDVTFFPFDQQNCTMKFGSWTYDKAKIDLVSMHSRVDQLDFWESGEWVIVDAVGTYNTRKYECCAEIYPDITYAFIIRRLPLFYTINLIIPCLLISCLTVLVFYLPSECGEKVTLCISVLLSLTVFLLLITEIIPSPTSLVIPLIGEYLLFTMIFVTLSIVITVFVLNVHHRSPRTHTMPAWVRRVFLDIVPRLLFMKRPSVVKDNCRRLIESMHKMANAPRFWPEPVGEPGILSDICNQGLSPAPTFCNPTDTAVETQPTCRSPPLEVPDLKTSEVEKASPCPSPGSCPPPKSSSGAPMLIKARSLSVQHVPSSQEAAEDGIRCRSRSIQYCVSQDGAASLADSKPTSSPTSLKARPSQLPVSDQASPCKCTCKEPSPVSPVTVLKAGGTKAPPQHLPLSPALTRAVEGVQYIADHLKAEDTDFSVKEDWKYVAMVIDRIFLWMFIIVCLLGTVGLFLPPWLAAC
Sequence of Neuronal acetylcholine receptor; alpha4/beta2 (P12390 whole entry): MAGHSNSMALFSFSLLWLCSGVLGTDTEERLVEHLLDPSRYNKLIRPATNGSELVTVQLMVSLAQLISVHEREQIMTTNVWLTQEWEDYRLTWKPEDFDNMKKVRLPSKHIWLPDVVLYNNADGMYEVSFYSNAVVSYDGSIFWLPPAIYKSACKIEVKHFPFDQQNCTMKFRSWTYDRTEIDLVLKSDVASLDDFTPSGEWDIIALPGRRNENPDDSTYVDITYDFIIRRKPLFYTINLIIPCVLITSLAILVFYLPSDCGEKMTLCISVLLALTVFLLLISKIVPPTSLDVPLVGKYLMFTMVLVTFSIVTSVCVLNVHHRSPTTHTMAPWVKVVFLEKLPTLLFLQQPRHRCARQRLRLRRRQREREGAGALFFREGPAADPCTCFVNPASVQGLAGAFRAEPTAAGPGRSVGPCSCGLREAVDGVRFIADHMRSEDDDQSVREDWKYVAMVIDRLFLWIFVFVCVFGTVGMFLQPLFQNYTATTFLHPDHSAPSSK
Sequence of Neuronal acetylcholine receptor subunit alpha-7 (Q05941 whole entry): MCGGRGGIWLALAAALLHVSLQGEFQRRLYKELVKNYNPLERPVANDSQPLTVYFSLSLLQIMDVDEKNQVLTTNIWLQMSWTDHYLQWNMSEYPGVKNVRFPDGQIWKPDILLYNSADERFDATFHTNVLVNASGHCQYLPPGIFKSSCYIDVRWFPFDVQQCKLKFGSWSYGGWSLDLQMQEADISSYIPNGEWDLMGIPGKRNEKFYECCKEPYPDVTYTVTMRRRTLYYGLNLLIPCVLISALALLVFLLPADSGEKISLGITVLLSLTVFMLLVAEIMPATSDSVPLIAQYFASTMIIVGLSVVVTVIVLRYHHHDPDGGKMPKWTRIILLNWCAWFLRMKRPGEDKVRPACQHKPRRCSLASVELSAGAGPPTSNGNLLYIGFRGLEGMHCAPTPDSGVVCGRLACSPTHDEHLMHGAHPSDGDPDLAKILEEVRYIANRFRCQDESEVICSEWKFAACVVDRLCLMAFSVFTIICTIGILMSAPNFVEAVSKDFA

By Ki is commonly meant a measure of affinity in units of concentration, obtained from inhibition or displacement. For `CCCCC#Cc1cncc(OC[C@@H]2CCN2)c1`, the Ki in test [1] was 1700 nM; in test [2], 0.1 nM; in test [3], 1900 nM; in test [4], 0.29 nM. The Ratio Ki in the test filed under Rattus norvegicus is 17000.
The like results for `CCCCC#Cc1cncc(OC[C@H]2CCCN2)c1` were, in that order, 12000 nM, 0.49 nM, 9100 nM, 7.7 nM and 24000.
Consider `c1ncc(-c2nnn3c2CCCC3)cc1OC[C@@H]1CCN1`, for which the Ki is 64000 nM in test [1], 10 nM in test [2], 51000 nM in test [3] and 48 nM in test [4]. The Ratio Ki in the test listed under Rattus norvegicus came to 6200.
Turning to `CCCCC#Cc1cncc(OC[C@@H]2CCCN2)c1`, the Ki in test [1] was 18000 nM; in test [2], 1.2 nM; in test [3], 35000 nM; in test [4], 5.8 nM. Further, the Ratio Ki in the test filed under Rattus norvegicus was 15000.
The matching figures for `CCCCC#Cc1cncc(OC[C@H]2CCN2)c1`: 5200 nM, 0.5 nM, 13000 nM, 0.92 nM and 10000.
The like results for `[N-]=[N+]=NCCCCC#Cc1cncc(OC[C@@H]2CCN2)c1` were, in that order, 3400 nM, 0.086 nM, 2700 nM, 0.36 nM and 40000.
The matching figures for `OCCCCc1cn(-c2cncc(OC[C@@H]3CCN3)c2)nn1`: 77000 nM, 1.3 nM, 100000 nM, 8 nM and 59000.

The values above are taken from ChEMBL document CHEMBL3286394, “Synthesis and pharmacological characterization of new neuronal nicotinic acetylcholine receptor ligands derived from Sazetidine-A” (Bioorg Med Chem Lett, 2014).
